# Measured values from patent US5869500A, “Pyridone compounds useful in treating Alzheimer's disease” (Hoffmann-La Roche Inc., priority 1996, dated 1999).
# Tests used:
# [1] = tested on: Aβ production in HEK cells over-expressing Wild type β-APP; assay: Aβ production inhibition, sandwich-ELISA in HEK cells which over-express Wild type β-APP (SE-WT); format: cell-based, human; details: Homo sapiens; for IC50: HEK293, based on the respective plateau of maximum inhibition; for Emax: HEK293, maximum inhibition plateau, read-out: SE-WT max. inhibition %
# Procedure: (§1) The effect of test substances on the inhibition of Aβ-amyloid production can be measured in the supernatant of cell cultures of β-APP expressed cells using ELISA tests or other quantitative determination methods for β-APP degradation products. Typically, 8×10^5 cells (e.g. HEK cells, which express recombinant human β-APP variants) are plated out in each well of a culture dish having 24 wells in growth media such as e.g. OPTIMEM (Gibco) and the test compound is then added. After an incubation period of 24 to 48 hours at 37° C. in a 10% CO2 atmosphere the supernatant is removed from the cell cultures and the β-APP degradation products (e.g. Aβ or β-[…]) are determined with the aid of ELISA (or sandwich ELISA) analysis or by means of quantitative immunoprecipitation (after metabolic radiolabelling of the cell proteins). Typically, 300 μl of the cell supernatant are tested according to the state of the art for ELISA tests in culture dishes having 96 wells. In the case of sandwich ELISA for Aβ, the binding antibody can be directed against the first 16 amino acids of Aβ-peptide (e.g. 6E10 Senetek, Maryland Heights, Mo.) and the detection antibody can be directed against amino acids 17-40 or 17-42 of Aβ and carries a detection system such as e.g. peroxidase. A simple ELISA test with an antibody, e.g. 22C11 (Boehringer Mannheim), can be used as the test for […]; the second antibody can be an anti-(mouse) Ig having a detection system, such as e.g. peroxidase. The peroxidase reaction can be carried out e.g. using a TMB substrate (BioRAD) and the measurements can be carried out at 650 nm using an ELISA reading apparatus. […] SE-SFAD signifies the Aβ production inhibition measured using sandwich-ELISA in HEK cells, SFAD signifies over-expressed mutated β-APP, and SE-WT signifies the Aβ production inhibition measured using sandwich-ELISA in HEK cells which over-express Wild type β-APP. The IC50 values are based on the respective plateau of maximum inhibition.
# [2] = tested on: Aβ production in HEK cells over-expressing mutated β-APP (SFAD); assay: Aβ production inhibition, sandwich-ELISA in HEK cells, over-expressed mutated β-APP (SE-SFAD); format: cell-based, human; details: Homo sapiens, HEK293, HEK cells; for IC50: based on the respective plateau of maximum inhibition; for Emax: maximum inhibition plateau, read-out: SE-SFAD max. inhibition %
# Procedure: as §1
Compound,IC50 [1],Emax [1],IC50 [2],Emax [2]
"O=C(OCCn1ccnc1)c1cc(-c2ccccc2)c(=O)n2ccc3ccsc3c12 [Compound 2, 2-Imidazol-1-yl-ethyl 7-oxo-8-phenyl-7H-thieno[2,3-a]quinolizine-10-carboxylate]",1200 nM,70%,10000 nM,50%
"CN(C)CC=CCOC(=O)c1cc(-c2ccccc2)c(=O)n2ccc3ccsc3c12 [Compound 59, 4-Dimethylamino-but-2-enyl 7-oxo-8-phenyl-7H-thieno[2,3-a]-quinolizine-10-carboxylate methanesulphonate]",7000 nM,100%,5000 nM,100%
"COCCN(CCOC)C(=O)c1cc(-c2ccccc2)c(=O)n2ccc3ccsc3c12 [Compound 22, 7-Oxo-8-phenyl-7H-thieno[2,3-a]quinolizine-10-carboxylic acid bis-(2-methoxy-ethyl)-amide]",2500 nM,80%,2000 nM,80%
"COCCN(CCOC)C(=O)c1cc(-c2ccc(OCc3ccccc3)cc2)c(=O)n2ccc3ccsc3c12 [Compound 67, 8-(4-Benzyloxy-phenyl)-7-oxo-7H-thieno[2,3-a]quinolizine-10-carboxylic acid bis-(2-methoxy-ethyl)-amide]",600 nM,80%,800 nM,70%
"O=C(OCc1ccccn1)c1cc(-c2ccccc2)c(=O)n2ccc3ccsc3c12 [Compound 6, Pyridin-2-yl-methyl 7-oxo-8-phenyl-7H-thieno[2,3-a]quinolizine-10-carboxylate]",600 nM,75%,3000 nM,50%
"O=C(OCC#CCN1CCCC1)c1cc(-c2ccccc2)c(=O)n2ccc3ccsc3c12 [Compound 47, 4-(Pyrrolidin-1-yl)-but-2-ynyl 7-oxo-8-phenyl-7H-thieno[2,3-a]-quinolizine-10-carboxylate methanesulphonate]",1500 nM,55%,5000 nM,55%
"O=C(OCCN1CCCC1=O)c1cc(-c2ccccc2)c(=O)n2ccc3ccsc3c12 [Compound 29, 2-(2-Oxo-pyrrolidin-1-yl)-ethyl 7-oxo-8-phenyl-7H-thieno[2,3-a]-quinolizine-10-carboxylate]",4100 nM,80%,3000 nM,40%
"O=C(OCC#CCN1CCOCC1)c1cc(-c2ccccc2)c(=O)n2ccc3ccsc3c12 [Compound 46, 4-(Morpholin-4-yl)-but-2-ynyl 7-oxo-8-phenyl-7H-thieno[2,3-a]-quinolizine-10-carboxylate]",1000 nM,50%,4000 nM,70%
"CCCOC1CCN(C(=O)c2cc(-c3ccccc3)c(=O)n3ccc4ccsc4c23)C1 (stereo not shown) [Compound 10, 8-Phenyl-10-(3-propoxy-pyrrolidine-1-carbonyl)-thieno[2,3-a]-quinolizin-7-one]",7000 nM,50%,6600 nM,50%
"CCOC1CCN(C(=O)c2cc(-c3ccccc3)c(=O)n3ccc4ccsc4c23)C1 (stereo not shown) [Compound 9, 10-(3-Ethoxy-pyrrolidine-1-carbonyl)-8-phenyl-thieno[2,3-a]quinolizin-7-one]",40000 nM,50%,5000 nM,35%
"COCC1CCCCN1C(=O)c1cc(-c2ccccc2)c(=O)n2ccc3ccsc3c12 (stereo not shown) [Compound 50, 10-(2-Methoxymethyl-piperidine-1-carbonyl)-8-phenyl-thieno[2,3-a]-quinolizin-7-one]",3600 nM,40%,5500 nM,40%
"COC1CCN(C(=O)c2cc(-c3ccccc3)c(=O)n3ccc4ccc(Cl)cc4c23)C1 (stereo not shown) [Compound 41, 10-Chloro-1-(3-methoxy-pyrrolidine-1-carbonyl)-3-phenyl-pyrido [2,1-a]isoquinolin-4-one]",3500 nM,75%,6000 nM,100%
"CON(C)C(=O)c1cc(-c2ccccc2)c(=O)n2ccc3ccsc3c12 [Compound 54, 7--Oxo-8-phenyl-7H-thieno[2,3-a]quinolizine-10-carboxylic acid methoxy-methyl-amide]",3000 nM,40%,6000 nM,30%
"COC[C@H]1CCCN1C(=O)c1cc(-c2ccccc2)c(=O)n2ccc3ccc(Cl)cc3c12 [Compound 38, 10-Chloro-1-(2-(R)methoxymethyl-pyrrolidine-1-carbonyl)-3-phenyl-pyrido [2,1-a]isoquinolin-4-one]",1500 nM,70%,7000 nM,100%
"O=C(Nc1nccs1)c1cc(-c2ccccc2)c(=O)n2ccc3ccsc3c12 [Compound 49, 7-Oxo-8-phenyl-7H-thieno[2,3-a]quinolizine-10-carboxylic acid thiazol-2-yl-amide]",500 nM,50%,700 nM,50%
"COCCN(C)C(=O)c1cc(-c2ccccc2)c(=O)n2ccc3ccsc3c12 [Compound 19, 7-Oxo-8-phenyl-7H-thieno[2,3-a]quinolizine-10-carboxylic acid (2-methoxy-ethyl)-methyl-amide]",20000 nM,100%,–,–
"CCN(CCO)C(=O)c1cc(-c2ccccc2)c(=O)n2ccc3ccsc3c12 [Compound 21, 7-Oxo-8-phenyl-7H-thieno[2,3-a]quinolizine-10-carboxylic acid (2-hydroxy-ethyl)-ethyl-amide]",40000 nM,100%,–,–
"COCCN(CC1CC1)C(=O)c1cc(-c2ccc(OCc3ccccc3)cc2)c(=O)n2ccc3c(ncn3C)c12 [Compound 104, 8-(4-Benzyloxy-phenyl)-3-methyl-7-oxo-3,7-dihydro-imidazo [4,5-a]-quinolizine-10-carboxylic acid cyclopropylmethyl-(2-methoxy-ethyl)-amide]",–,–,3000 nM,100%
"O=C(c1cc(-c2ccccc2)c(=O)n2ccc3ccsc3c12)N1CCC[C@@H]1CI [Compound 11, 10-(2-(R)-Iodomethyl-pyrrolidine-1-carbonyl)-8-phenyl-thieno[2,3-a]-quinolizin-7-one]",11000 nM,100%,–,–
"NC(=O)c1cc(-c2ccccc2)c(=O)n2ccc3ccsc3c12 [Compound 56, 7-Oxo-8-phenyl-7H-thieno[2,3-a]quinolizine-10-carboxylic acid amide]",–,–,1000 nM,35%
"O=C(O[C@@H]1CN(C(=O)OCc2ccccc2)C[C@@H]1O)c1cc(-c2ccccc2)c(=O)n2ccc3ccsc3c12 (racemic) [Compound 57, (3RS,4SR)-1-Benzyloxy-carbonyl-4-hydroxy-pyrrolidin-3-yl 7-oxo-8-phenyl-7H-thieno[2,3-a]quinolizine-10-carboxylate]",–,–,500 nM,35%
"COCCN(CC1CC1)C(=O)c1cc(-c2ccc(OC)cc2)c(=O)n2ccc3ccsc3c12 [Compound 146, 8-(4-Methoxy-phenyl)-7-oxo-7H-thieno[2,3-a]quinolizine-10-carboxylic acid cyclopropylmethyl-(2-methoxy-ethyl)-amide]",–,–,1500 nM,100%
"CC(=O)OC[C@H]1CCCN1C(=O)c1cc(-c2ccccc2)c(=O)n2ccc3ccsc3c12 [Compound 12, 1-(7-Oxo-8-phenyl-7H-thieno[2,3-a]quinolizine-10-carbonyl)-pyrrolidin-2-(R)-yl-methyl acetate]",1000 nM,50%,–,–
"COc1cccc(-c2cc(C(=O)Nc3ccc(OC)c(OC)c3)c3c4sccc4ccn3c2=O)c1 [Compound 123, 8-(3-Methoxy-phenyl)-7-oxo-7H-thieno[2,3-a]quinolizine-10-carboxylic acid (3,4-dimethoxy-phenyl)-amide]",–,–,800 nM,100%
"COCCN(C(=O)c1cc(-c2ccc(OC)cc2)c(=O)n2ccc3ccsc3c12)c1ccccc1 [Compound 147, 8-(4-Methoxy-phenyl)-7-oxo-7H-thieno[2,3-a]quinolizine-10-carboxylic acid (2-methoxy-ethyl)-phenyl-amide]",–,–,1500 nM,100%
"COCCN(C(=O)c1cc(-c2ccccc2OC)c(=O)n2ccc3ccsc3c12)c1ccccc1 [Compound 121, 8-(2-Methoxy-phenyl)-7-oxo-7H-thieno[2,3-a]quinolizine-10-carboxylic acid (2-methoxy-ethyl)-phenyl-amide]",–,–,1800 nM,100%
